According to US20180318199A1, “Pharmaceutical Composition Having Anti-Aging Properties against High-Glucose” (TAIWAN LEADER BIOTECH CORP., priority 2017, published 2018):

Tests used:
Type in all cases: cell-based, human
[1] = system: pRb, cyclin D1, cyclin E, cyclin B1, CDK4, CDK6, CDK2 and Cdc2; test: Western blot of cell-cycle regulatory proteins in HNDFs; details: 72 h; for cyclin D1, CDK4, CDK6, cyclin E and CDK2 protein levels under HG: ANM 10 μM or NAC 100 μM + HG 30 mM
Protocol: To further clarify this effect, G1-S transition regulatory proteins are determined by immunoblotting. In FIG. 3B, western blot analysis is performed to determine the expression levels of cell-cycle regulatory proteins including, pRb, cyclin D1, cyclin E, cyclin B1, CDK4, CDK6, CDK2 and Cdc2; and GAPDH is served as an internal control.
Cells are lysed by either RIPA lysis buffer or nuclear and cytoplasmic extraction reagents (Thermo Fisher Scientific). Protein concentrations are determined by Bio-Rad protein assay reagent (Bio-Rad Laboratories, Hercules, Calif.). Equal amounts of protein samples (60 μg) are separated by 7-12% SDS-PAGE and the separated proteins are transferred onto polyvinylidene […] (PVDC) membrane overnight. The transferred protein membranes are blocked with 5% non-fat dried milk for 30 min, followed by incubation with specific primary antibodies overnight, and either horseradish peroxidase-conjugated goat anti-rabbit or anti-mouse antibodies for 2 h. The blots are detected using VL Chemi-Smart 3000 (Viogene Biotek, Sunnyvale, Calif.) with the enhanced chemiluminescence (ECL) western blotting reagent (Millipore, Billerica, Mass.).

[2] = system: HNDFs; test: Intracellular ROS by flow cytometry (DCFH-DA) in HNDFs; details: 24 h; for intracellular ROS generation: ANM 10 μM or NAC 100 μM + HG 30 mM, HG alone 426.2%; for ROS generation, compound alone: ANM 10 μM or NAC 100 μM without HG
Protocol: Next, please refer to FIG. 4A˜FIG. 4H, which are views showing HG-induced senescence inhibited by ANM in HNDFs. As shown in the figures, it is examined whether ANM inhibits HG-induced ROS generation. In FIG. 4A, HNDFs are incubated with ANM (10 μM) or NAC (100 μM) either in the presence or absence of HG (30 mM) for 24 h. The intracellular ROS level is determined by flow cytometry using DCH-DA flurogenic probe. […] As is shown, HNDFs are co-incubated with HG and ANM or NAC for 24 h, and intracellular ROS levels are measured by flow cytometry.
Moreover, in FIG. 6B, HNDFs are transfected with specific siRNA against Nrf2 or control siRNA. […] Intracellular ROS is measured by DCFH-DA assay.
Intracellular ROS accumulation is determined using the dye DCFH2-DA following a procedure described earlier. Briefly, HNDFs (1×10^5 cells/well) are seeded in 6-well plates and incubated with HG in the presence or absence of test samples for 24 h. At the end of the incubation, the culture supernatant is removed and cells are washed twice with PBS. DCFH2-DA […] is mixed with 500 μL MEM and added to the culture plate. After incubation for 30 minutes, cells are collected by trypsin and the fluorescence shift is quantified using a flow cytometer (Beckman Coulter). Data are acquired and analyzed using CXP software (Beckman Coulter).

[3] = system: SMP30; test: SMP30 immunofluorescence in HNDFs; details: ANM 10 μM or NAC 100 μM + HG 30 mM, 72 h
Protocol: In FIG. 4C, SMP30 expression provided by ANM is examined. HNDFs are incubated with ANM (10 μM) or NAC (100 μM) in the presence or absence of HG (30 mM) for 72 h. The protein expression of SMP30 is measured by immunofluorescence using SMP30 specific primary antibody and fluorescein isothiocyanate-conjugated secondary antibody (green). The cellular localization of SMP30 is photographed using a fluorescence microscope. 4′,6-diamidino-2-phenylindole (DAPI) (1 μM) is used to stain the nucleus.
HNDFs at a density of 1×10^4 cells/well are cultured in an eight-well glass Nunc Lab-Tek chamber (ThermoFisher Scientific, Waltham, Mass.). Cells are treated with ANM or NAC in the presence or absence of HG for 2-72 h. After incubation, culture medium is removed and cells are fixed in 4% paraformaldehyde for 15 min, permeabilized with 0.1% Triton X-100 for 10 min, washed and blocked with 10% FBS in PBS, and then incubated overnight with the corresponding primary antibodies in 1.5% FBS. The cells are then incubated with the fluorescein isothiocyanate (FITC)-conjugated secondary antibody (Alexa fluor 488, ThermoFisher Scientific) for another 1 h in 6% bovine serum albumin (BSA). Next, the cells are stained with 1 μg/mL 4′,6-diamidino-2-phenylindole (DAPI, Cell Signaling Technology) for 5 min, washed with PBS, and visualized using a fluorescence microscope (Motic Electric Group) at 40× magnification.

[4] = system: Keap-1; test: Keap-1 protein level and ubiquitination (western blot, immunoprecipitation) in HNDFs; details: for ubiquitination of total protein: HNDFs treated with ANM or NAC
Protocol: Under normal physiological condition, Nrf2 is sequestered in the cytoplasm, where it associated with Keap-1, an actin-binding protein. Upon chemical treatment or oxidative stress conditions, the steady-state levels of Keap-1 is rapidly degraded through the ubiquitin-dependent proteasome pathway, which eventually causes Nrf2 accumulation and transcriptional activity. […] In FIG. 5H, the Keap-1 protein expression level is determined by western blotting.
In FIG. 5I, effect of ANM on ubiquitination of Keap-1 is examined. Equivalent amount of proteins are immune-precipitated with Keap-1 antibody and visualized by western blotting with ubiquitin antibody. […] Results are expressed as mean±S.E.M of three independent experiments. Statistical significance is set at ^ϕP<0.05 as compared to NG vs. HG or ANM alone or NAC alone and *P<0.05 as compared to HG vs. samples. […] Therefore, it is further examined whether AKT and ERK1/2 have any influence on Keap-1 ubiquitination. Cells are co-incubated with AKT, p38MAPK, JNK and ERK1/2 inhibitors in the presence of […]; and the Keap-1 ubiquitination is examined.
HNDFs are seeded at a density of 1×10^6 cells/dish in 10 cm dish and treated with ANM or pharmacological inhibitors of AKT, JNK/SAPK, p38 MAPK and ERK1/2 in the presence or absence of HG. After treatment, cells are lysed with RIPA buffer containing protease inhibitor cocktail. The lysates are homogenized and centrifuged at 16,000×g for 15 min at 4° C. The supernatant is collected and the protein concentration is determined by Bio-Rad protein assay reagent. Total protein extract containing 500 μg of proteins are precleared with protein-A agarose beads for 1 h and incubated with 3 μg of anti-Keap-1 antibody for overnight at 4° C. with gently shake. After overnight incubation, centrifuged at 2000×g for 5 min at 4° C., the supernatant is discarded and the reaming pellet is washed with RIPA buffer. Immunoprecipitated complexes are mixed with SDS sample buffer and denatured at 94° C. for 5 min. Equal amount of protein samples are subjected to western blotting. The ubiquitinated Keap-1 protein levels are determined by ubiquitin antibody.

| Compound | cyclin B1 and Cdc2 levels ([1]; ANM 10 μM + HG 30 mM) | protein Rb phosphorylation under HG ([1]; ANM 10 μM + HG 30 mM) | cyclin D1, CDK4, CDK6, cyclin E and CDK2 protein levels under HG [1] | HG-induced ROS generation, scrambled siRNA cells ([2]; ANM 10 μM + HG) | ROS generation, siNrf2 transfected cells ([2]; ANM 10 μM + HG) | intracellular ROS generation [2] [%] | ROS generation, compound alone [2] | HG-induced reduction in SMP30 (immunofluorescence) [3] | ubiquitination of Keap-1, co-incubated with HG ([4]; ANM + HG) | Keap-1 protein level ([4]; ANM alone or in HG-induced condition) | ubiquitination of Keap-1 ([4]; ANM alone, immunoprecipitation with anti-Keap-1) | ubiquitination of total protein [4] |
| --- | --- | --- | --- | --- | --- | --- | --- | --- | --- | --- | --- | --- |
| C=C(CCC(C)C1CCC2C3=C(C(=O)C(O)C21C)C1(C)CCC(O)C(C)C1CC3)C(C)C(=O)O (centres unmarked) [ANM, antcin M] | unaffected | significantly inhibits | upregulated | significantly inhibits | increased ROS generation | 200.8 | does not significantly increase | significantly prevented | further increase | significantly decreased | remarkable increase | significant increase |
| CC(=O)N[C@@H](CS)C(=O)O [NAC, N-acetylcysteine, reference compound] | – | – | partially rescues | – | – | 176.58 | does not significantly increase | partially prevented | – | – | – | significant increase |
